Laboratory results taken from patent US20220072075A1, “METHOD FOR PRODUCING NATURAL ANTIMICROBIAL SUBSTANCE AND ANTIMICROBIAL COMPOSITION COMPRISING NATURAL ANTIMICROBIAL SUBSTANCE PRODUCED BY THE SAME” (MY CO.,LTD, priority 2020, published 2022).

Tested on: Staphylococcus aureus
Experiment: Antimicrobial Efficacy Test 4: elimination of Staphylococcus aureus, identification using a mass spectrometer
Type: cell-based
Conditions: substance added as named (70% ethanol, Febreze)
Method: In the present disclosure, “natural antimicrobial substance (n %)” means that the natural antimicrobial substance of the present disclosure is dissolved in multi-photocatalyst water or hypochlorous acid water (pH 5) at a concentration of n %. FIGS. 4 to 9 show the data obtained by identifying Staphylococcus aureus and Staphylococcus aureus plus specific substance using a mass spectrometer.

CCO [70% ethanol, ethanol]
elimination of Staphylococcus aureus (mass spectrum / bacterial identification): not eliminated
